Where no end group is shown, it is not given here.
Columns and labels:
[1] = test system: Methicillin resistant S. aureus (MRSA); assay type: cell-based, Staphylococcus aureus; settings: broth microdilution (CLSI), 64 to 0.125 μg/mL, 24 h at 35 °C, human clinical isolate
Procedure: (§1) Tissue expression of devil cathelicidin prepropeptides was determined by real-time PCR on a range of secretory, immune, reproductive, gastrointestinal and respiratory tissues, as well as BLAST searches of the milk transcriptome. Opportunistic tissue samples for real-time PCR were collected from Taronga Zoo (Sydney) from devils which were subject to euthanasia due to old age and advanced disease. The mature peptides of all six devil cathelicidins were synthesised by ChinaPeptides Co. Ltd. and their antimicrobial activity against bacterial and fungal pathogens determined by broth microdilution susceptibility assay according to clinical laboratory standards institute guidelines. Antimicrobial activity was expressed as minimum inhibitory concentration (MIC). Cytotoxicity was assessed in the human cell line A549 and haemolytic activity determined against human blood. Statistical significance of peptide effect on cell survival in comparison to the untreated control was calculated using a one sample t-test. Pouch microbiome analysis was performed on swabs from the pouch of lactating and non-lactating devils to detect changes in microbe populations. Pouch swab collection was carried out in accordance with the Save the Tasmanian Devil Program and was approved by the Animal Ethics Committee of the University of Sydney (permit number 681). […]
(§2) base (YNB) for fungi, from a concentration of 64μg/mL to 0.125μg/mL in a final volume of 100 μL .
(§3) Two antibiotics, ampicillin and tetracycline, were included as a positive control for bacteria, and the antifungal drug fluconazole for fungi. A well containing cells and media only was used as a “no drug” control to ensure that cultures grew normally. […] Colonies were resuspended in saline and the OD530 measured with a McFarland reader. […] Assays Antimicrobial activity was expressed as minimum inhibitory concentration (MIC), which was defined as the lowest concentration of cathelicidin preventing visible growth, relative to the negative control. […]
(§4) DMEM and positive control of dimethylsulfoxide (DMSO) (1%) were also included. Following incubation for a further 24 hours, cell viability was determined using alamar blue (Invitrogen) which was added to each well. The plates were incubated for 24 hours, then the absorption measured at 570nm and 620nm using the Victor 3 multilabel plate reader (PerkinElmer). […] To x i city of cathelicidins was calculated according to Invitrogen recommendations and expressed as percentage cell survival compared to the untreated growth control. […]
(§5) Haemolytic activity was assessed using 10mL of human blood collected into potassium -ED T A […]

S. aureus = assay type: cell-based, Staphylococcus aureus; settings: broth microdilution (CLSI), 64 to 0.125 μg/mL, 24 h at 35 °C; human clinical isolate
Procedure: as §1, §2, §3, §4, §5

C. glabrata = assay type: cell-based; settings: broth microdilution (CLSI), YNB, 64 to 0.125 μg/mL, 48 hours at 35 °C; human clinical isolate
Procedure: as §1, §2
(§6) Two antibiotics, ampicillin and tetracycline, were included as a positive control for bacteria, and the antifungal drug fluconazole for fungi. A well containing cells and media only was used as a “no drug” control to ensure that cultures grew normally. Bacteria were subcultured on Mueller Hinton agar (MHA) or Sheep blood agar (BA) for 24 hours at 35 °C for Staphylococcus spp., Pseudomonas spp., Enterococcus spp. and E.coli, with 5% CO2 for Streptococcus spp., K.pneumoniae, P.multocida, L.monocytogenes and N.asteroides. Similarly, fungi were subcultured on Sabouraud agar (SAB) at 35 °C for 24 hours prior to the test. Colonies were resuspended in saline and the OD530 measured with a McFarland reader. If necessary the suspension was diluted to 0.45-0.55 McFarland units with saline. Following a 1:150 dilution for bacteria and twostep dilution for fungi (1:50, 1:20), 100 μL of microorganisms (1x106 – 5 x10^5 cells/mL) were pipetted into wells 2-12, the first well acting as a negative control. Colony counts were performed using a 1:1000 dilution for bacteria and 1:10 for fungi spread onto MHA/BA or SAB plates respectively. The 96 well microdilution and agar plates were incubated for 24 hours at 35 °C (Escherichia coli, Staphylococcus spp., Enterococcus spp. and Pseudomonas spp.), with 5% CO2 (Streptococcus spp. Pasteurella multocida, Klebsiella pneumoniae, Listeria monocytogenes a nd Nocardia asteroids) for bacteria, and 35 °C for 48 hours (Candida spp .) or 72 hours (Cryptococcus spp.) for fungi. Assays Antimicrobial activity was expressed as minimum inhibitory concentration (MIC), which was defined as the lowest concentration of cathelicidin preventing visible growth, relative to the negative control. […]
(§7) DMEM and positive control of dimethylsulfoxide (DMSO) (1%) were also included. Following incubation for a further 24 hours, cell viability was determined using alamar blue (Invitrogen) which was added to each well. The plates were incubated for 24 hours, then the absorption measured at 570nm and 620nm using the Victor 3 multilabel plate reader (PerkinElmer). The assay was performed on two separate occasions. To x i city of cathelicidins was calculated according to Invitrogen recommendations and expressed as percentage cell survival compared to the untreated growth control. A significant difference between cathelicidin treated and control cell survival was tested using a o ne sample t-test (p<0.05).
as §5
(§8) vacutainers (BD). […]

N. asteroides* = assay type: cell-based; settings: broth microdilution (CLSI), 64 to 0.125 μg/mL, 24 h at 35 °C with 5% CO2; animal isolate
Procedure: as §1, §2, §6, §7, §5, §8

S. agalactiae ATCC 12386 = assay type: cell-based; settings: broth microdilution (CLSI), 64 to 0.125 μg/mL, 24 h at 35 °C with 5% CO2; ATCC strain
Procedure: as §1, §2, §6, §7, §5, §8

S. agalactiae = assay type: cell-based; settings: broth microdilution (CLSI), 64 to 0.125 μg/mL, 24 h at 35 °C with 5% CO2; human clinical isolate
Procedure: as §1, §2, §6, §7, §5, §8

S. anginosus = assay type: cell-based; settings: broth microdilution (CLSI), 64 to 0.125 μg/mL, 24 h at 35 °C with 5% CO2; human clinical isolate
Procedure: as §1, §2, §6, §7, §5, §8

[2] = test system: S. dysgalactiae subs. equisimilis; assay type: cell-based; settings: broth microdilution (CLSI), 64 to 0.125 μg/mL, 24 h at 35 °C with 5% CO2; human clinical isolate
Procedure: as §1, §2, §6, §7, §5, §8

S. equi* = assay type: cell-based; settings: broth microdilution (CLSI), 64 to 0.125 μg/mL, 24 h at 35 °C with 5% CO2; animal isolate
Procedure: as §1, §2, §6, §7, §5, §8

S. lutetiensis = assay type: cell-based; settings: broth microdilution (CLSI), 64 to 0.125 μg/mL, 24 h at 35 °C with 5% CO2; human clinical isolate
Procedure: as §1, §2, §6, §7, §5, §8

S. mutans = assay type: cell-based; settings: broth microdilution (CLSI), 64 to 0.125 μg/mL, 24 h at 35 °C with 5% CO2; human clinical isolate
Procedure: as §1, §2, §6, §7, §5, §8

S. oralis/mitis group = assay type: cell-based; settings: broth microdilution (CLSI), 64 to 0.125 μg/mL, 24 h at 35 °C with 5% CO2; human clinical isolate
Procedure: as §1, §2, §6, §7, §5, §8

S. pyogenes ATCC 19615 = assay type: cell-based; settings: broth microdilution (CLSI), 64 to 0.125 μg/mL, 24 h at 35 °C with 5% CO2; ATCC strain
Procedure: as §1, §2, §6, §7, §5, §8

S. salivarius = assay type: cell-based; settings: broth microdilution (CLSI), 64 to 0.125 μg/mL, 24 h at 35 °C with 5% CO2; human clinical isolate
Procedure: as §1, §2, §6, §7, §5, §8

KRIGLIRLIGKILRGLRRLG [Saha-CATH5]
MIC [1]: 32 µg/mL | MIC (S. aureus): 64 µg/mL | MIC (C. glabrata): >64 µg/mL | MIC (N. asteroides*): >64 µg/mL | MIC (S. agalactiae ATCC 12386): 64 µg/mL | MIC (S. agalactiae): 64 µg/mL | MIC (S. anginosus): 32 µg/mL | MIC [2]: >64 µg/mL | MIC (S. equi*): 64 µg/mL | MIC (S. lutetiensis): >64 µg/mL | MIC (S. mutans): >64 µg/mL | MIC (S. oralis/mitis group): 64 µg/mL | MIC (S. pyogenes ATCC 19615): 32 µg/mL | MIC (S. salivarius): >64 µg/mL

KRIRFFERIRDRLRDLGNRIKNRIRDFFS [Saha-CATH6]
MIC (S. aureus): >64 µg/mL | MIC (C. glabrata): >64 µg/mL | MIC (N. asteroides*): >64 µg/mL | MIC (S. agalactiae ATCC 12386): 64 µg/mL | MIC (S. agalactiae): >64 µg/mL | MIC (S. anginosus): 64 µg/mL | MIC [2]: >64 µg/mL | MIC (S. equi*): >64 µg/mL | MIC (S. lutetiensis): >64 µg/mL | MIC (S. mutans): >64 µg/mL | MIC (S. oralis/mitis group): 64 µg/mL | MIC (S. pyogenes ATCC 19615): 64 µg/mL | MIC (S. salivarius): >64 µg/mL

KRMGIFHLFWAGLRKLGNLIKNKIQQGIENFLG [Saha-CATH3]
MIC (S. aureus): >64 µg/mL | MIC (C. glabrata): >64 µg/mL | MIC (N. asteroides*): >64 µg/mL | MIC (S. agalactiae ATCC 12386): >64 µg/mL | MIC (S. agalactiae): >64 µg/mL | MIC (S. anginosus): >64 µg/mL | MIC [2]: >64 µg/mL | MIC (S. equi*): >64 µg/mL | MIC (S. lutetiensis): >64 µg/mL | MIC (S. mutans): >64 µg/mL | MIC (S. oralis/mitis group): >64 µg/mL | MIC (S. pyogenes ATCC 19615): >64 µg/mL | MIC (S. salivarius): >64 µg/mL

Source: publication PMC5057115, “Cathelicidins in the Tasmanian devil (Sarcophilus harrisii)” (Scientific Reports, 2016)
